The text below walks through data of patent US8354398B2, “Substituted isoxazole compounds” (Bristol-Myers Squibb Company, priority 2009, dated 2013).

Data set [1] has as its system circulating lymphocytes. Particulars: animals and humans; cited from earlier work.
The conditions of data set [2]: clinical studies, first 24 hours of treatment; cited from earlier work.
In data set [3] the test system is circulating lymphocytes. As to the kind of experiment: Blood Lymphocyte Reduction Assay (BLR) in mice. In kind it is in vivo. The conditions noted are these: BALB/c mice, oral, vs vehicle group. How it is done:
(§1) Lewis rats or BALB/c mice were dosed orally with test article (as a solution or suspension in the vehicle) or vehicle alone (polyethylene glycol 300, “PEG300”). Blood was drawn at 4 hr and 24 h by retro-orbital bleeding. Blood lymphocyte counts were determined on an ADVIA® 120 Hematology Analyzer (Siemens Healthcare Diagnostics). The results were measured as a reduction in the percentage of circulating lymphocytes as compared to the vehicle treated group at the 4 hr and 24 hr measurement. The results represent the average results of all animals within each treatment group (n=3-4).
(§2) Examples 1 and 2 were tested in the Blood Lymphocyte Reduction assay (BLR) described hereinabove and the results are shown in Table D for rats and Table E for mice.

Data set [4] addresses T1, S1P3 (Homo sapiens, UniProt Q99500). As to the kind of experiment: Method B: Receptor [35S] GTPγS SPA Binding Assay, membranes from S1P3 transfected CHO cells. In kind it is biochemical. Details: expressed in transfected cells; host or cells: CHO cells. The conditions noted are these: S1P3 transfected CHO cell membranes, NC = a satisfactory dose response curve was not obtained. How it is done:
(§3) Membranes prepared from S1P1 or S1P3 transfected CHO cells (2 μg protein) were incubated in 96-well white plates (CORNING® 3693) with test compounds diluted in DMSO, in 50 μl of reaction mixture containing 7.5 μl WGA-PVT beads (20 mg/ml), and 5 μM GDP, 20 mM HEPES pH 7.4, 100 mM NaCl, 1 mM EDTA, 5 mM MgCl2, 10 μg/ml saponin, 0.1% BSA, and 1 μM leupeptin. The assay was initiated with the addition of 25 μl of 0.2 nM [^35S]-GTPγS (1250 Ci/mmol; NEN) in assay buffer. After 90 min incubation at room temperature, spin the plate at 1000 rpm for 5 min. The bound radionuclides were measured at TOPCOUNT®, expressed as % response relative to S1P (1 μM) activation. Data was analyzed using the four parameter logistic equation in Excel. The four parameters in the equation, Y=A+((B−A)/(1+((EC50/X)^D))), are described as following: A is the Y value (agonist activity) at the bottom plateau; B is the Y value at the top plateau; EC50 is the X value (agonist concentration) when the response is halfway between bottom and top; D is Hill coefficient. Curves were not generated for compounds having Ymax values were below 50%.
(§4) Compounds of the present invention and Comparative Compound A were tested in the Receptor [^35S] GTPγS Binding Assays (Method A) and Receptor [35S] In some instances, the value is an average of multiple experiments where N is the number of experiments conducted that provided satisfactory dose response curves. When more than one batch of an example was tested, the value presented is from a batch which allowed a comparison of GTPγS S1P1 and GTPγS S1P3 in which the most number of experiments were performed. Preferably, the same batch was examined in Method A and Method B. Data was not averaged across different batches of an example compound.
Target sequence in this assay (Q99500 whole entry, species assumed): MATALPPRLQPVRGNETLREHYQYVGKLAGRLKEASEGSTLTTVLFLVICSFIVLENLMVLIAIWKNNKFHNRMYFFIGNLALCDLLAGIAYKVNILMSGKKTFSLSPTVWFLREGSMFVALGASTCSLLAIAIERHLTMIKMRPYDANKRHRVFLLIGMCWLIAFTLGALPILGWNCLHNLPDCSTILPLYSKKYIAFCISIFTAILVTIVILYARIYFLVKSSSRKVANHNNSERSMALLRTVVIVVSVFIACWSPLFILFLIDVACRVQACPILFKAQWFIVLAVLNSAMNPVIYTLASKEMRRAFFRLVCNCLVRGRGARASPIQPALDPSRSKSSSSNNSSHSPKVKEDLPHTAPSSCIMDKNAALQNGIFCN

Data set [5] has as its target T1, S1P3. As to the kind of experiment: Method A: Receptor [35S] GTPγS Binding Assay, membranes from EDG3-Ga15-bla HEK293T cells. The class given is biochemical. The conditions noted are these: EDG3-Ga15-bla HEK293T cell membranes. Details: expressed in transfected cells; host or cells: EDG3-Ga15-bla HEK293T cells. As for the experimental part:
(§5) Compounds were loaded in a 384 Falcon v-bottom plate (0.5 μl/well in a 3-fold dilution). Membranes prepared from S1P1/CHO cells or EDG3-Ga15-bla HEK293T cells were added to the compound plate (40 μl/well, final protein […]) with MULTIDROP®. [^35S]GTP (1250 Ci/mmol, Perkin Elmer) was diluted in assay buffer: 20 mM HEPES, pH7.5, 10 mM MgCl2, 150 mM NaCl, 1 mM EGTA, 1 mM DTT, 10 μM GDP, 0.1% fatty acid free BSA, and 10 mg/ml Saponin to 0.4 nM. 40 μl of the [^35S] GTP solution was added to the compound plate with a final concentration of 0.2 nM. The reaction was kept at room temperature for 45 min. At the end of incubation, all the mixtures in the compound plate were transferred to a 384 well FB filter plates via GPCR robot system. The filter plate was washed with water 4 times by using the modified manifold Embla plate washer and dried at 60° C. for 45 min. 30 μl of MicroScint 20 scintillation fluid was added to each well for counting at Packard TOPCOUNT®. EC50 is defined as the agonist concentration that corresponds to 50% of the Ymax (maximal response) obtained for each individual compound tested.
as §4
Target sequence in this assay (Q99500 whole entry): as the sequence (Q99500 whole entry, species assumed) above

Data set [6] deals with T2, S1P1 (Homo sapiens, UniProt P21453). As to the kind of experiment: Method B: Receptor [35S] GTPγS SPA Binding Assay, membranes from S1P1 transfected CHO cells. Details: expressed in transfected cells; host or cells: S1P1/CHO cells. The class given is biochemical. How it is done: as §3, §4
In data set [7] the target is T2, S1P1. As to the kind of experiment: Method A: Receptor [35S] GTPγS Binding Assay, membranes from S1P1/CHO cells. The class given is biochemical. Details: expressed in transfected cells; host or cells: S1P1/CHO cells. As for the experimental part:
as §5, §4

Data set [8] has as its system circulating lymphocytes. As to the kind of experiment: Blood Lymphocyte Reduction Assay (BLR) in rats. The class given is in vivo. Particulars: Lewis rats, oral, vs vehicle group. As for the experimental part:
as §1, §2

Data set [9] deals with T2, S1P1. As to the kind of experiment: S1P1 Binding Assay (33P-S1P ligand competition, membranes from CHO cells). Particulars: membranes of CHO cells expressing human S1P1; 0.03 nM 33P-S1P; 60 min room temperature. Also noted: expressed in transfected cells; host or cells: CHO cells. As for the experimental part: Membranes were prepared from CHO cells expressing human S1P1. Cells were dissociated in buffer containing 20 mM HEPES, pH 7.5, 50 mM NaCl, 2 mM EDTA and Protease Inhibitor cocktail (Roche), and disrupted on ice using the Polytron homogenizer. The homogenate was centrifuged at 20,000 rpm (48,000 g) and the supernatant was discarded. The membrane pellets were resuspended in buffer containing 50 mM HEPES, pH 7.5, 100 mM NaCl, 1 mM MgCl2, 2 mM EDTA and stored in aliquots at −80° C. after protein concentration determination.
Membranes (2 μg/well) and 0.03 nM final concentration of ^33P-S1P ligand (1 mCi/ml, American Radiolabeled Chemicals) were added to the compound plates. Binding was performed for 60 min at room temperature, terminated by collecting the membranes onto GF/B filter plates, and radioactivity was measured by TOPCOUNT®. The competition data of the test compounds over a range of concentrations was plotted as percentage inhibition of radioligand specific binding. The IC50 is defined as the concentration of competing ligand needed to reduce specific binding by 50%.
Compounds of the present invention and Comparative Compound A were tested in the S1P1 binding assay described hereinabove and the results rounded to two digits, shown in Table A were obtained. In some instances, the value is an average of multiple experiments where N is the number of experiments conducted that provided satisfactory dose response curves. When more than one batch of an example was tested, the value presented is from the batch which allowed a comparison of GTPγS S1P1 and GTPγS S1P3 in Method A (Data shown in Table B). Data was not averaged across different batches of an example compound.

T2 sequence (P21453 whole entry): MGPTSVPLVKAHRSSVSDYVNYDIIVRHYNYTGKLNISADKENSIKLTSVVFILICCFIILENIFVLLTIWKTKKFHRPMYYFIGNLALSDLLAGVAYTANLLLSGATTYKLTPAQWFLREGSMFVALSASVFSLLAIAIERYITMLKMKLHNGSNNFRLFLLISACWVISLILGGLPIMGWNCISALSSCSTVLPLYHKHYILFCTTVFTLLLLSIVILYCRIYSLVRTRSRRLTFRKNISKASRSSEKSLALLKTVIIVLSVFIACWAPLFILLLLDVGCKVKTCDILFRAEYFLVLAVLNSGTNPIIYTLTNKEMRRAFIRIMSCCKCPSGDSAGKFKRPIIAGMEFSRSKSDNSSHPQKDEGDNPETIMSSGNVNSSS

For `CCCCCCCCc1ccc(CCC(N)(CO)CO)cc1` [FTY720], in the data set on circulating lymphocytes [1], the circulating lymphocytes entry is “reduce circulating lymphocytes”. Also, in data set [2], the bradycardia on treatment result was “results in bradycardia”.

Consider `O=C(O)C1CN(Cc2ccc(-c3noc(-c4noc(-c5ccccc5)c4C(F)(F)F)n3)cc2)C1` [Example 2, 1-(4-(5-(5-Phenyl-4-(trifluoromethyl)isoxazol-3-yl)-1,2,4-oxadiazol-3-yl)benzyl)azetidine-3-carboxylic acid], for which the “% reduction in lymphocytes at 4 hr.” value in the data set with circulating lymphocytes [3] (0.001 mg/kg) is −26%; in the data set with circulating lymphocytes [3] (0.01 mg/kg) it was −4%; in the data set on circulating lymphocytes [3] (0.1 mg/kg), 70%; in the data set with circulating lymphocytes [3] (1.0 mg/kg) it was 83%; with circulating lymphocytes [8] (0.03 mg/kg), 70%; with circulating lymphocytes [8] (0.3 mg/kg) it was 80%. Also, the “% reduction in lymphocytes at 4 hr.” value in the data set on circulating lymphocytes [8] (1.0 mg/kg) was found to be 84%. Moreover, the “% reduction in lymphocytes at 24 hr.” value in the data set on circulating lymphocytes [3] (0.001 mg/kg) was 17%; in the data set with circulating lymphocytes [3] (0.01 mg/kg), 15%; in the data set with circulating lymphocytes [3] (0.1 mg/kg) it was 62%; in the data set on circulating lymphocytes [3] (1.0 mg/kg), 84%; with circulating lymphocytes [8] (0.03 mg/kg), 56%; with circulating lymphocytes [8] (0.3 mg/kg) it was 79%. Further, the “% reduction in lymphocytes at 24 hr.” value in the data set on circulating lymphocytes [8] (1.0 mg/kg) is listed as 85%. Further, the EC50 at S1P3 [4] was 350 nM; at S1P3 [5] it was 3600 nM; at S1P1 [6] (Method B SPA, S1P1 transfected CHO cell membranes, NC = a satisfactory dose response curve was not obtained), 0.076 nM; on S1P1 [7] (Method A, S1P1/CHO cell membranes) it was 1.7 nM. Also, the “GTPγS S1P3/S1P1 (Method B)” value at S1P1 [6] (ratio of GTPγS S1P3 EC50 to GTPγS S1P1 EC50, Method B) is reported as 4,600. On S1P1 [7] (ratio of GTPγS S1P3 EC50 to GTPγS S1P1 EC50, Method A), the “GTPγS S1P3/S1P1 (Method A)” value is given as 2,100. Moreover, on S1P1 [9], the IC50 worked out at 0.05 nM.
